Source: patent US6262064A, “Octahydrobenzo[f]quinoline-based receptor agonists and antagonists” (priority 1999, dated 2001)
Entries after “also recorded” stand apart in the source; their conditions may differ. Read-outs that look alike come from different tables or passages of the source.

Assays:
[1] = system: non-habituated male Swiss-Webster mice; test: Locomotor dose-effect test; assay type: in vivo
Method: Compounds of this invention were tested to evaluate any depressant effect upon locomotor activity on non-habituated and cocaine-influenced mice. Locomotor activity was measured in photocell cages. A panel of infrared beams was located in the horizontal direction along all 4 sides of each activity cage. Horizontal photocell beam interruptions were recorded by a computer in 10 minute intervals.
Non-habituated male Swiss-Webster served as subjects in this experiment. The mice were injected via the intraperitoneal (IP) route with a methycellulose vehicle or a test compound, comprising trans-9 or cis-9, and placed singly in cages for 20 minutes. After this 20 minute period, mice were injected with saline IP, placed in individual photocell cages and testing for effects upon locomotor activity was begun. Eight mice were tested at each dose level. Experimental sessions were 60 minutes in duration with horizontal locomotor activity recorded in 10 minute intervals. Within each 10 minute interval, the data from all subjects are averaged.
The results of these tests were provided in FIGS. 1a, 1b, 2a and 2b, as well as in Table XI. […] Data were analyzed by a one-way ANOVA computed across doses using a long10 transformation of the horizontal activity counts. Comparisons between vehicle and each dose of the compounds tested were made by a priori contrasts. Doses of the compounds tested, which produced a statistically significant (p<0.05) decrease in locomotor activity relative to vehicle control, are denoted with an asterisk. […] The horizontal activity counts were regressed against the log10 dose of the test compound.

[2] = system: male Sprague-Dawley albino rats; test: Stereotypy evaluation for dopaminergic activity; assay type: in vivo; conditions: IP
Method: Young, adult, male Sprague-Dawley (Charles River) albino rats (200-250 g) served as subjects in this experiment. The rats were injected IP with each dose of (±)-trans-9 or (±)-cis-9. Six rats were tested at each dose. Experimental sessions were 60 minutes in duration. The tests were performed and rated in accordance with the method described in Campbell et al., Psychopharmacology, 88:158 (1986). Each rat was rated with a score of 0 to 3, where 0 represents no sterotypy.

D3 (human) receptor = target: T1, D3 (human) receptor (Homo sapiens, UniProt P35462); test: D2:D3:D4 competition binding assay, D3 ([3H]-spiperone); conditions: in words, Example 26
T1 construct: expressed in transfected cells
T1 sequence (P35462 whole entry): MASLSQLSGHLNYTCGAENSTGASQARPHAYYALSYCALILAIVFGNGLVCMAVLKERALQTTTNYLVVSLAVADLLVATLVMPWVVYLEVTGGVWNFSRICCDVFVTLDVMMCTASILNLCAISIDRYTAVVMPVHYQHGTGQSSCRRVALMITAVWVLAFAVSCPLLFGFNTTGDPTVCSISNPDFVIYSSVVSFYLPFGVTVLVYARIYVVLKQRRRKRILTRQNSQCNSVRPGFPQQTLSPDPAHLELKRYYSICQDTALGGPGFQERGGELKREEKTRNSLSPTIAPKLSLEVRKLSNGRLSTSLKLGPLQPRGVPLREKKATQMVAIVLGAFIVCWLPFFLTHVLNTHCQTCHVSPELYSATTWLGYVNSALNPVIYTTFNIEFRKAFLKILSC
Method: (§1) To determine the D2, D3 or D4 receptor selectivity, competition binding assays were performed using membranes from fibroblast cell lines transfected with D2444 (rat), D3 (human) or D4 (rat) receptors. All cell lines were maintained in Dulbecco's modified Eagle's media (DMEM) supplemented with 10 % fetal bovine serum at 37° C. with 5% CO2. Transfected cells were maintained in DMEM containing 300 μg/mL of the antibiotic G418 (Gibco).
Nuclei were removed by centrifugation for five minutes at 600 g at 4° C., membranes were pelleted for 25 minutes at 50,000 g. Membrane protein was resuspended in homogenization buffer (0.32M sucrose, 0.0025M Tris, pH 6.9 at 20° C.) and incubated at 37° C. for 15 minutes. Membrane protein was pelleted, resuspended in water and stored at -70° C.
The compositions were tested in varying concentrations between 1 nM and 100 μM. Non-specific binding was determined using 1 μM eticlopride.
After addition of all components, the samples were incubated for 15 minutes at 37° C., terminated with 50 mM Tris-HCl (pH 7.4 at 4° C.) and collected on glass-fiber filters on a Brandel cell harvester. […] Each composition was evaluated in duplicate experiments.

D4 receptor = target: T2, D4 receptor (Homo sapiens, UniProt P21917, DEL265-296); test: D2:D4 comparative binding assay, D4 (COS-7 cells)
T2 construct: expressed in transfected cells; host or cells: COS-7 cells
T2 sequence (P21917 other isoform, or with tags, fused parts or gaps DEL265-296): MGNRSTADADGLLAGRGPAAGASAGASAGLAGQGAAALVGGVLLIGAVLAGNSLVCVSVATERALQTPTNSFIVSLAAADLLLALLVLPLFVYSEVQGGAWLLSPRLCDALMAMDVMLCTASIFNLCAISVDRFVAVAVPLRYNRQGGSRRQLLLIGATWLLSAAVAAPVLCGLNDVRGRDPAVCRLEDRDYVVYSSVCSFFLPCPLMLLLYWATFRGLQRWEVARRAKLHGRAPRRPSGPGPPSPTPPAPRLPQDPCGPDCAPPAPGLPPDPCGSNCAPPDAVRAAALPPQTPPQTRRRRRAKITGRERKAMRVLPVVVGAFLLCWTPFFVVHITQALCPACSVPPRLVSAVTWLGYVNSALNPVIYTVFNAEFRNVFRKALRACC
Method: (§2) To evaluate D2 versus D4 receptor selectivity, comparative binding assays were performed to compare the binding affinities of compositions of this invention for cloned D2 and D4 receptors.
(§3) The D2 assay was prepared from pig anterior pituitary tissue as described in Seeman et al., Molecular Pharmacology, 28:391 (1985). The D4 assay contained membranes prepared from COS-7 cells transfected with a 3.9 kb cDNA-gene fusion construct as described in H. H. M. Vantol, Nature, 350:610 (1991).
(§4) Binding assays were done using the methods described in by Seeman and Vantol. [^3 H]-spiperone (New England Nuclear, Boston, Mass.). The compositions were tested varying concentrations.
(§5) After addition of all components, the samples were incubated for 15 minutes at 37° C., terminated with 50 mM Tris-HCl (pH 7.4 at 20° C.) and collected on glass-fiber filters on a Brandel cell harvester. Radioactivity retained on the filters was counted on a Beckman LS 1701 scintillation counter and data were analyzed by non-linear least squares regression methods.

[3] = system: alpha1-adrenergic receptor
Method: In these assays, the binding reaction was initiated by the addition of varying concentrations of the potential binding composition and a radioligand to an appropriate tissue. The assay was then incubated to allow binding. Binding was then terminated by dilution of the assay with a cold buffer, followed by rapid vacuum filtration onto Whatman GI/C filters that were presoaked in 0.1% polyethylene imine for at least 3 hours. Radioactivity trapped onto the filters was determined and compared to control values in order to ascertain any interactions of test compounds with the binding sites. Binding affinity analyses were performed by Novascreen, Division of the Adheron Corporation, Hanover, Md.
Incubation was conducted in 50 mM TRIS-HCl (pH 7.7) at 25° C. for 60 minutes. […] The final ligand concentration was 0.5 nm.

5HT1 serotonin receptor = test: Serotonin (5HT1) binding assay
Method: In these assays, the binding reaction was initiated by the addition of varying concentrations of the potential binding composition and a radioligand to an appropriate tissue. The assay was then incubated to allow binding. Binding was then terminated by dilution of the assay with a cold buffer, followed by rapid vacuum filtration onto Whatman GI/C filters that were presoaked in 0.1% polyethylene imine for at least 3 hours. Radioactivity trapped onto the filters was determined and compared to control values in order to ascertain any interactions of test compounds with the binding sites.
Incubation was conducted in 50 mM TRIS-HCl (pH 7.4) at 45 minutes for 37° C. The radioligand used was [^3 H]Hydroxytryptamine binoxalate (15-30 Ci/mmol). The final ligand concentration was 3.0 nM.

D1 dopamine receptor = target: T3, D1 dopamine receptor (Rattus norvegicus, UniProt P18901); test: Dopamine D1 binding assay ([3H]SCH 23390); conditions: Table III; rat striatal membranes; read-out: D1 receptor binding affinity Ki
T3 construct: rat striatal membranes; from tissue; host or cells: rat striatum membranes
T3 sequence (P18901 whole entry): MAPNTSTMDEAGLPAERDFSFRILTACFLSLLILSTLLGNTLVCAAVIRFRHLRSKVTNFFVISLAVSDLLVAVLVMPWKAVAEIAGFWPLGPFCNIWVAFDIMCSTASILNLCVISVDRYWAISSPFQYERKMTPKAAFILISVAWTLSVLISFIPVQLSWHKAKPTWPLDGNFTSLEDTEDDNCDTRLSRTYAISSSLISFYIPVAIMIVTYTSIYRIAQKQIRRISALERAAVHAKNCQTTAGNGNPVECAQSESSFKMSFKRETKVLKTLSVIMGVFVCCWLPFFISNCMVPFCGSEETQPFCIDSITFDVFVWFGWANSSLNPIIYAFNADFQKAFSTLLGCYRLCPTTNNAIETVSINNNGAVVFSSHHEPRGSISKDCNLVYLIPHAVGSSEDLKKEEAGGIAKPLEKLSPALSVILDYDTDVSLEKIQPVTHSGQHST
Method: The final radioligand concentration was 0.5 nM.

D2 receptor [4] = target: T4, D2 receptor (Sus scrofa, UniProt F1SM69); test: D2:D4 comparative binding assay, D2 (pig anterior pituitary)
T4 construct: pig anterior pituitary tissue; from tissue; host or cells: pig anterior pituitary
T4 sequence (F1SM69 1-443): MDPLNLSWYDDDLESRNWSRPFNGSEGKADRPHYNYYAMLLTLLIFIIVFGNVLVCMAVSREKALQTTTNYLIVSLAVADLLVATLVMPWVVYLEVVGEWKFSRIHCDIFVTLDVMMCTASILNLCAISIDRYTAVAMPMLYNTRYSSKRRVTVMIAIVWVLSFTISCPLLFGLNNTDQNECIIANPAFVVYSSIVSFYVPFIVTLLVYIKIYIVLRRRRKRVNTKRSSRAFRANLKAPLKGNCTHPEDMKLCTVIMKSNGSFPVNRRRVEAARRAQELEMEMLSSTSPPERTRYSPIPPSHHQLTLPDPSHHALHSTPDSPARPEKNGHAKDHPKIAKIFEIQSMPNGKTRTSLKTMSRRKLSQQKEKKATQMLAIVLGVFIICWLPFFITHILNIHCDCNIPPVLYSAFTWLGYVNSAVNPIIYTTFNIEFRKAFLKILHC
Method: as §2, §3, §4, §5

D2 receptor [5] = target: T5, D2 receptor (Rattus norvegicus, UniProt P61169); test: D2 receptor agonist evaluation (membrane binding with and without Gpp(NH)p)
T5 construct: expressed in transfected cells
T5 sequence (P61169 whole entry): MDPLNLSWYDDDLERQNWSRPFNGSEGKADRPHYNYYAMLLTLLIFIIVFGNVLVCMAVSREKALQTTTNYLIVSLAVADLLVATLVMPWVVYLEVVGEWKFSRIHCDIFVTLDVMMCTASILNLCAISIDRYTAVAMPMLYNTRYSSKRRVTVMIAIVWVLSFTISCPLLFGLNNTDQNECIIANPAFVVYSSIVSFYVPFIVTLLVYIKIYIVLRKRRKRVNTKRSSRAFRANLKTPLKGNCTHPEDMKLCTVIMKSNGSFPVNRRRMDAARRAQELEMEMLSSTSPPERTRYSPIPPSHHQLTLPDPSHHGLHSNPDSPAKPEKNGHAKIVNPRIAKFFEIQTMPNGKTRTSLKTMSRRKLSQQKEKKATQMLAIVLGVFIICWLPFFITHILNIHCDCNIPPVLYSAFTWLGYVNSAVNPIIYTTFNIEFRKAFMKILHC
Method: as §1
To determine whether or not compounds of this invention were D2 receptor agonists, a membrane binding assay, utilizing the D2 cell line described in Example 26, was performed in the presence and absence of the non-hydrolyzable guanine nucleotide (GTP analogue) Gpp(NH)p.

D2 dopamine receptor = target: T6, D2 dopamine receptor (Rattus norvegicus, UniProt P61169); test: Dopamine D2 binding assay ([3H]Sulpiride)
T6 construct: rat striatal membranes; from tissue; host or cells: rat striatum membranes
T6 sequence (P61169 whole entry): as above
Method: The final ligand concentration was 0.5 nM.

[6] = target: alpha2-adrenergic receptor; test: Alpha2-adrenergic (non-selective) binding assay ([3H]RX 781094); set-up: species or system rat

## Oc1ccc2c(c1O)CC[C@@H]1[C@@H]2CCCN1CCc1ccccc1 (relative stereo) [trans-9, trans-7,8-dihydroxy-4-phenethyl-1,2,3,4,4a,-5,6,10b-octahydrobenzo[f]quinoline]
[1]; IP, in words
  decrease in locomotor activity, overall assessment: strong agonist in inducing a decrease in locomotor activity in mice
  suppression of locomotor activity: marked suppression of locomotor activity when initially tested at 10 mg/kg; also recorded: Marked suppression was still evident at 0.1 mg/kg
[1]; Mus musculus, read-out: ED50 (dose which produced 50% maximal depressant activity), IP, horizontal locomotor activity
  ED50: 0.038 mg/kg
[2]; 0.0001 mg/kg
  stereotypy score: 6.5 ± 0.4
[2]; 0.001 mg/kg
  stereotypy score: 10.0 ± 0.9
[2]; 0.003 mg/kg
  stereotypy score: 8.2 ± 0.8
[2]; 0.01 mg/kg
  stereotypy score: 7.2 ± 0.6
[2]; 0.03 mg/kg
  stereotypy score: 6.5 ± 0.5
[2]; 0.1 mg/kg
  stereotypy score: 6.0 ± 0.7
[2]; 0.3 mg/kg
  stereotypy score: 1.7 ± 0.5
[2]; 1.0 mg/kg
  stereotypy score: 0.3 ± 0.2
[2]; 3.0 mg/kg
  stereotypy score: 0.2 ± 0.2
[2]; 10.0 mg/kg
  stereotypy score: 0.0
[2]; in words
  induction of stereotypy, dopamine agonism: appears to be a strong agonist as it induced stereotypy in rats
D3 (human) receptor
  selectivity for the D3 receptor: highly selective for the D3 receptor over the D2 or D4 receptors
D4 receptor
  Ki: 2.4 nM
[3]; in words
  α1 receptor binding affinity: high binding affinities for the α1 receptor
[3]; read-out: α1 receptor binding affinity Ki, Table III, rat forebrain membranes
  Ki: 80 nM
5HT1 serotonin receptor; in words
  5HT1 serotonin receptor binding affinity: high binding affinity for the 5HT1 serotonin receptor
5HT1 serotonin receptor; read-out: 5-HT1 receptor binding affinity Ki, Table III, rat cortical membranes
  Ki: 150 nM
D1 dopamine receptor
  Ki: 3600 nM
D2 receptor [4]
  Ki: 6.9 nM
D2 receptor [5]; Table XV
  Ratio of +:- Gpp(NH)p: 8.82
D2 receptor [5]; Table XV, with Gpp(NH)p, read-out: D2 receptor binding Ki with Gpp(NH)p
  Ki: 924 ± 1840 nM
D2 receptor [5]; Table XV, without Gpp(NH)p, read-out: D2 receptor binding Ki without Gpp(NH)p
  Ki: 105 ± 29 nM
D2 receptor [5]; in words
  D2 agonist/antagonist assessment: appear to be agonists
  effect of GTP on D2 receptor binding: D2 receptor binding was enhanced by the addition of GTP
D2 dopamine receptor
  Ki: 2.2 nM
D2 dopamine receptor; in words
  dopamine receptor binding affinity: good dopamine receptor binding affinities
  selectivity for the D2 over the D1 dopamine receptor: highly selective for the D2 dopamine receptor over the D1 dopamine receptor
[6]; Table III, rat cortical membranes, read-out: α2 receptor binding affinity Ki
  Ki: 22 nM
[6]; in words
  α2 receptor binding affinity: high binding affinities for the α2 receptor
